Literature values in patent US20240115593A1, “METHISOPRINOL COMPOSITIONS” (priority 2020, published 2024).

Details: water solution without additional 1-dimethylaminopropan-2-ol 4-acetamidobenzoate, stored at +20° C. to +2° C.

## Methisoprinol
  time after which Methisoprinol crystallizes out: 6 days
